Assay results published in patent US20240018145A1, “[…]-DEPENDENT EN[…] TREATING OR […]” (priority 2020, published 2024).

System: FLU A (PR/8/34)
Experiment: Flu A Neuraminidase Antiviral Assay
Type: cell-based
Conditions: not given

Structure (SMILES) | EC50
C=CCC1CCC2N(C)C(=O)c3c(O)c(=O)ccn3N2C1c1ccccc1Cl (stereo not shown) [Compound 64A, 2-allyl-1-(2-chlorophenyl)-7-hydroxy-5-methyl-1,2,3,4,4a,5-hexahydrodipyrido[1,2-b:2′,1′-f][1,2,4]triazine-6,8-dione] | 3.79 µM
C=CCC1CCC2N(C)C(=O)c3c(O)c(=O)ccn3N2C1c1ccccc1Cl (stereo not shown) [Compound 64B, 2-allyl-1-(2-chlorophenyl)-7-hydroxy-5-methyl-1,2,3,4,4a,5-hexahydrodipyrido[1,2-b:2′,1′-f][1,2,4]triazine-6,8-dione] | 0.0284 µM
C=CCC1CCC2N(C)C(=O)c3c(O)c(=O)ccn3N2C1c1ccccc1Cl (stereo not shown) [Compound 64C, 2-allyl-1-(2-chlorophenyl)-7-hydroxy-5-methyl-1,2,3,4,4a,5-hexahydrodipyrido[1,2-b:2′,1′-f][1,2,4]triazine-6,8-dione] | 0.673 µM
C=CCC1CCC2N(C)C(=O)c3c(O)c(=O)ccn3N2C1c1ccccc1Cl (stereo not shown) [Compound 64D, 2-allyl-1-(2-chlorophenyl)-7-hydroxy-5-methyl-1,2,3,4,4a,5-hexahydrodipyrido[1,2-b:2′,1′-f][1,2,4]triazine-6,8-dione] | 0.0046 µM
CCCC1CCC2N(C)C(=O)c3c(O)c(=O)ccn3N2C1c1ccccc1Cl (stereo not shown) [Compound 65A, 1-(2-chlorophenyl)-7-hydroxy-5-methyl-2-propyl-1,2,3,4,4a,5-hexahydrodipyrido[1,2-b:2′,1′-f][1,2,4]triazine-6,8-dione] | 0.396 µM
CCCC1CCC2N(C)C(=O)c3c(O)c(=O)ccn3N2C1c1ccccc1Cl (stereo not shown) [Compound 65B, 1-(2-chlorophenyl)-7-hydroxy-5-methyl-2-propyl-1,2,3,4,4a,5-hexahydrodipyrido[1,2-b:2′,1′-f][1,2,4]triazine-6,8-dione] | 0.0028 µM
CN1C(=O)c2c(O)c(=O)ccn2N2C(c3ccccc3Cl)C(CCO)CCC12 (stereo not shown) [Compound 66A, 1-(2-chlorophenyl)-7-hydroxy-2-(2-hydroxyethyl)-5-methyl-1,2,3,4,4a,5-hexahydrodipyrido[1,2-b:2′,1′-f][1,2,4]triazine-6,8-dione] | > 8.1 µM
CN1C(=O)c2c(O)c(=O)ccn2N2C(c3ccccc3Cl)C(CCO)CCC12 (stereo not shown) [Compound 66B, 1-(2-chlorophenyl)-7-hydroxy-2-(2-hydroxyethyl)-5-methyl-1,2,3,4,4a,5-hexahydrodipyrido[1,2-b:2′,1′-f][1,2,4]triazine-6,8-dione] | 0.182 µM
CCN1C(=O)c2c(O)c(=O)cc(COC)n2N2C(c3ccccc3)C(CC(F)(F)F)CCC12 (stereo not shown) [Compound 131B, 5-ethyl-7-hydroxy-10-(methoxymethyl)-1-phenyl-2-(2,2,2-trifluoroethyl)-1,2,3,4,4a,5-hexahydrodipyrido[1,2-b:2′,1′-f][1,2,4]triazine-6,8-dione] | > 0.81 µM
CCN1C(=O)c2c(O)c(=O)cc(COC)n2N2C(c3ccccc3)C(CC(F)(F)F)CCC12 (stereo not shown) [Compound 131C, 5-ethyl-7-hydroxy-10-(methoxymethyl)-1-phenyl-2-(2,2,2-trifluoroethyl)-1,2,3,4,4a,5-hexahydrodipyrido[1,2-b:2′,1′-f][1,2,4]triazine-6,8-dione] | > 0.81 µM
CCN1C(=O)c2c(O)c(=O)cc(COC)n2N2C(c3ccccc3)C(CC(F)(F)F)CCC12 (stereo not shown) [Compound 131D, 5-ethyl-7-hydroxy-10-(methoxymethyl)-1-phenyl-2-(2,2,2-trifluoroethyl)-1,2,3,4,4a,5-hexahydrodipyrido[1,2-b:2′,1′-f][1,2,4]triazine-6,8-dione] | > 0.81 µM
CCN1C(=O)c2c(O)c(=O)cc(COC)n2N2C(c3ccccc3)C(CC(F)(F)F)CCC12 (stereo not shown) [Compound 131E, 5-ethyl-7-hydroxy-10-(methoxymethyl)-1-phenyl-2-(2,2,2-trifluoroethyl)-1,2,3,4,4a,5-hexahydrodipyrido[1,2-b:2′,1′-f][1,2,4]triazine-6,8-dione] | 0.0068 µM
CCN1C(=O)c2c(O)c(=O)cc(COC)n2N2C(c3ccccc3)C(CC(F)(F)F)CCC12 (stereo not shown) [Compound 131F, 5-ethyl-7-hydroxy-10-(methoxymethyl)-1-phenyl-2-(2,2,2-trifluoroethyl)-1,2,3,4,4a,5-hexahydrodipyrido[1,2-b:2′,1′-f][1,2,4]triazine-6,8-dione] | 0.0125 µM
CN1C(=O)c2c(O)c(=O)ccn2N2C(c3ccccc3)C(O)CCC12 (stereo not shown) [Compound 135B, 2,7-dihydroxy-5-methyl-1-phenyl-1,2,3,4,4a,5-hexahydrodipyrido[1,2-b:2′,1′-f][1,2,4]triazine-6,8-dione] | > 8.1 µM
CN1C(=O)c2c(O)c(=O)ccn2N2C(c3ccccc3)C(O)CCC12 (stereo not shown) [Compound 136A, 2,7-dihydroxy-5-methyl-1-phenyl-1,2,3,4,4a,5-hexahydrodipyrido[1,2-b:2′,1′-f][1,2,4]triazine-6,8-dione] | 1.92 µM
CN1C(=O)c2c(O)c(=O)ccn2N2C(c3ccccc3)C(O)CCC12 (stereo not shown) [Compound 136B, 2,7-dihydroxy-5-methyl-1-phenyl-1,2,3,4,4a,5-hexahydrodipyrido[1,2-b:2′,1′-f][1,2,4]triazine-6,8-dione] | > 8.1 µM
CN1C(=O)c2c(O)c(=O)ccn2N2C1CCC(O)C2(C)c1ccccc1 (stereo not shown) [Compound 137A, 2,7-dihydroxy-1,5-dimethyl-1-phenyl-1,2,3,4,4a,5-hexahydrodipyrido[1,2-b:2′,1′-f][1,2,4]triazine-6,8-dione] | 0.79 µM
CN1C(=O)c2c(O)c(=O)ccn2N2C1CCC(O)C2(C)c1ccccc1 (stereo not shown) [Compound 137B, 2,7-dihydroxy-1,5-dimethyl-1-phenyl-1,2,3,4,4a,5-hexahydrodipyrido[1,2-b:2′,1′-f][1,2,4]triazine-6,8-dione] | > 8.1 µM
CN1C(=O)c2c(O)c(=O)ccn2N2C1CCC(O)C2(C)c1ccccc1 (stereo not shown) [Compound 137C, 2,7-dihydroxy-1,5-dimethyl-1-phenyl-1,2,3,4,4a,5-hexahydrodipyrido[1,2-b:2′,1′-f][1,2,4]triazine-6,8-dione] | > 8.1 µM
CN1C(=O)c2c(O)c(=O)ccn2N2C1CCC(O)C2(C)c1ccccc1 (stereo not shown) [Compound 137D, 2,7-dihydroxy-1,5-dimethyl-1-phenyl-1,2,3,4,4a,5-hexahydrodipyrido[1,2-b:2′,1′-f][1,2,4]triazine-6,8-dione] | 0.0493 µM
CN1C(=O)c2c(O)c(=O)ccn2N2C1CCC(=O)C2(C)c1ccccc1 (stereo not shown) [Compound 138A, 7-hydroxy-1,5-dimethyl-1-phenyl-3,4,4a,5-tetrahydrodipyrido[1,2-b:2′,1′-f][1,2,4]triazine-2,6,8(1H)-trione] | 0.0197 µM
CN1C(=O)c2c(O)c(=O)ccn2N2C1CCC(=O)C2(C)c1ccccc1 (stereo not shown) [Compound 138B, 7-hydroxy-1,5-dimethyl-1-phenyl-3,4,4a,5-tetrahydrodipyrido[1,2-b:2′,1′-f][1,2,4]triazine-2,6,8(1H)-trione] | 1.72 µM

Same assay, conditions: MDCK, 48 h

Structure (SMILES) | EC50
CN1C(=O)c2c(OCc3ccccc3)c(=O)ccn2N2C(c3ccccc3)CCCCCC12 (stereo not shown) [Compound 58A, 4-(benzyloxy)-6-methyl-12-phenyl-6,6a,7,8,9,10,11,12-octahydropyrido[1′,2′:1,6][1,2,4]triazino[2,3-a]azocine-3,5-dione] | > 8.1 µM
CN1C(=O)c2c(O)c(=O)ccn2N2C(c3ccccc3)CCC12 (stereo not shown) [Compound 60B, 6-hydroxy-4-methyl-1-phenyl-2,3,3a,4-tetrahydro-1H-pyrido[2,1-f]pyrrolo[1,2-b][1,2,4]triazine-5,7-dione] | 0.884 µM
CCC1(c2ccccc2)CCC2N(C)C(=O)c3c(O)c(=O)ccn3N21 (stereo not shown) [Compound 62A, 1-ethyl-6-hydroxy-4-methyl-1-phenyl-2,3,3a,4-tetrahydro-1H-pyrido[2,1-f]pyrrolo[1,2-b][1,2,4]triazine-5,7-dione] | > 8.1 µM
COCCC1CCC2N(C)C(=O)c3c(O)c(=O)ccn3N2C1c1ccccc1Cl (stereo not shown) [Compound 67, 1-(2-chlorophenyl)-7-hydroxy-2-(2-methoxyethyl)-5-methyl-1,2,3,4,4a,5-hexahydrodipyrido[1,2-b:2′,1′-f][1,2,4]triazine-6,8-dione] | 0.0164 µM
CC(C)CC1CC(c2ccccc2)N2C(C1)N(C)C(=O)c1c(O)c(=O)ccn12 (stereo not shown) [Compound 130B, 7-hydroxy-3-isobutyl-5-methyl-1-phenyl-1,2,3,4,4a,5-hexahydrodipyrido[1,2-b:2′,1′-f][1,2,4]triazine-6,8-dione] | 1.41 µM
CN1C(=O)c2c(O)c(=O)c(C#N)cn2N2C(c3ccccc3)C(CC(F)(F)F)CCC12 (stereo not shown) [Compound 133, 7-hydroxy-5-methyl-6,8-dioxo-1-phenyl-2-(2,2,2-trifluoroethyl)-1,2,3,4,4a,5,6,8-octahydrodipyrido[1,2-b:2′,1′-f][1,2,4]triazine-9-carbonitrile] | > 0.81 µM
CN1C(=O)c2c(O)c(=O)c(-c3nnn[nH]3)cn2N2C(c3ccccc3)C(CC(F)(F)F)CCC12 (stereo not shown) [Compound 134, 7-hydroxy-5-methyl-1-phenyl-9-(1H-tetrazol-5-yl)-2-(2,2,2-trifluoroethyl)-1,2,3,4,4a,5-hexahydrodipyrido[1,2-b:2′,1′-f][1,2,4]triazine-6,8-dione] | 0.453 µM
CN1C(=O)c2c(O)c(=O)ccn2N2[C@H](c3ccccc3)[C@@H](N=[N+]=[N-])CC[C@@H]12 [Compound 139, (1R,2S,4aS)-2-azido-7-hydroxy-5-methyl-1-phenyl-1,2,3,4,4a,5-hexahydrodipyrido[1,2-b:2′,1′-f][1,2,4]triazine-6,8-dione] | 0.0236 µM
CN1C(=O)c2c(O)c(=O)ccn2N2[C@H](c3ccccc3)[C@@H](NC(=O)C(F)(F)F)CC[C@@H]12 [Compound 140] | 2.4 µM
CN1C(=O)c2c(O)c(=O)ccn2N2[C@H](c3ccccc3)[C@@H](n3cc(CO)nn3)CC[C@@H]12 [Compound 141, (1R,2S,4aS)-7-hydroxy-2-(4-(hydroxymethyl)-1H-1,2,3-triazol-1-yl)-5-methyl-1-phenyl-1,2,3,4,4a,5-hexahydrodipyrido[1,2-b:2′,1′-f][1,2,4]triazine-6,8-dione] | > 8.1 µM
CC(C)S[C@H]1CC[C@H]2N(C)C(=O)c3c(O)c(=O)ccn3N2[C@@H]1c1ccccc1 [Compound 143B] | 0.0153 µM
CC(=O)N[C@H]1CC[C@@H](c2ccccc2)N2[C@@H]1N(C)C(=O)c1c(O)c(=O)ccn12 [Compound 144, N-((1S,4S,4aS)-7-hydroxy-5-methyl-6,8-dioxo-1-phenyl-1,2,3,4,4a,5,6,8-octahydrodipyrido[1,2-b:2′,1′-f][1,2,4]triazin-4-yl)acetamide] | > 0.81 µM
